# Laboratory results taken from patent publication US20100015249A1, “Antitumor agent containing 6'-amidino-2'-naphthyl 4-guanidinobenzoate or salt thereof” (priority 2005, published 2010).
# Legend:
# NF-κB = test: Gel shift assay of active NF-κB in nuclear extracts; type: cell-based, human
# Experimental: The human pancreas cancer cell line MDAPanc-28 was treated with various concentrations of FUT to examine the effect on NF-κB activation. NF-κB is constantly activated in the MDAPanc-28 cell line. A gel shift assay with a κB probe was performed using the nuclear extracts from cells treated with various concentrations of FUT to detect NF-κB which was activated and translocated into the nucleus. More specifically, 10 μg of nuclear extracts were reacted with 1 μg of poly (dI-dC) (Pharmacia, Picataway, N.J.) in binding buffer (75 mM NaCl, 15 mM Tris-HCl, pH 7.5, 1.5 mM dithiothreitol, 25% glycerol and 20 mg/ml bovine serum albumin) for 30 minutes at 4° C. ^32P-labeled oligonucleotide probes (SEQ ID Nos: 1 to 4) were then added for reaction for 20 minutes at room temperature and electrophoresis was performed (4% polyacrylamide gel, 0.25×TBE; 22.5 mM Tris, 22.5 mM borate and 500 μM EDTA, pH 8.0). After drying at 80° C. for 1 hour, the gel was exposed to Kodak film (Eastman Kodak Co., Rochester, N.Y.) at −80° C. for detection. Oct-1 was used as a positive control.
# IKK1 = target: T1, IKK1 (Homo sapiens, UniProt O15111); test: IKK immunoprecipitation kinase assay and Western blot after FUT treatment of cells; type: cell-based
# T1 construct: endogenous in cells; host or cells: MDAPanc-28 (human pancreas cancer cell line)
# Experimental: (§1) After FUT treatment, the human pancreas cancer cell line […]-28 was rinsed with ice-cold PBS to prepare 800 μg of cytoplasmic fraction. After adding glutathione sepharose beads (Amersham Pharmacia Biotech), the sample was invertedly mixed at 4° C. for 3 hours to remove non-specific absorption fractions. 4 μg of anti-IKK1/2 antibody (Santa Cruz Biotechnology) were added to the supernatant for reaction at 4° C. overnight. After adding glutathione sepharose beads, the sample was further mixed at 4° C. for 3 hours. The beads containing bound immunocomplex were rinsed twice with PBS and then subjected to immunoprecipitation and measurements of enzyme activity. To conduct the measurements of enzyme activity, the above mentioned beads were rinsed with kinase buffer (25 mM HEPES containing 150 mM NaCl, 25 mM beta-glycerophosphate and 10 mM MgCl2) to perform enzyme reaction. 5 uCi of ^32P-labeled y-ATP and 1 μg of the substrate GST-IκBα were reacted in the kinase buffer for 30 minutes at 37° C. The reaction was terminated by adding SDS sample buffer. The sample was analyzed by SDS-PAGE followed by autoradiography for detection.
# IKK2 = target: T2, IKK2 (Homo sapiens, UniProt O14920); test: as above; type: cell-based
# T2 construct: endogenous in cells; host or cells: MDAPanc-28 (human pancreas cancer cell line)
# Experimental: as §1
# PEA3 = PEA3 expression after FUT treatment; type: cell-based, human; conditions: MDAPanc-28, over time
# caspase 8 = test: Western blot of caspase 8 activation; type: cell-based, human
# Experimental: (§2) The present inventors examined whether apoptosis signaling cascade is triggered with the elevation of TNFRI expression induced by FUT treatment, using caspase 8 as an indicator. Cytoplasmic fraction was prepared from the human pancreas cancer cell line MDAPanc-28 treated with various concentrations of FUT for 24 hours. Western blot was performed and subjected to the detection with anti-caspase 8 antibody (Santa Cruz Biotechnology) (FIG. 6-a). Western blot was performed to examine temporal changes in the expression of caspase 8, p-FADD, Bid and jBid under a constant concentration of FUT (80 μg/ml) at short intervals from 0 to 24 hours of treatment (FIGS. 6-b, 6-c and 6-d). Anti-FADD antibody was obtained from Santa Cruz Biotechnology and anti-Bid antibody was obtained from BD Pharmingen.
# (§3) After the following treatment on the human pancreas cancer cell line MDAPanc-28, plasmatic compartment was prepared and Western blot was performed to examine the expression of phosphorylated FADD, caspase 8, NF-κB and IκBα. […] The same was true for IκBα expression (FIG. 7-c).
# FADD = test: Western blot of FADD phosphorylation; type: cell-based, human
# Experimental: as §2, §3
# MMP-2 = test: Western blot of MMP-2 expression; type: cell-based, human; conditions: MDAPanc-28 cytoplasmic fraction, 0 or 80 μg/ml FUT
# Experimental: Cytoplasmic fraction was prepared from the human pancreas cancer cell line […]-28 treated with either 0 μg/ml or 80 μg/ml of FUT. Western blot was performed for the obtained cytoplasmic proteins to examine MMP-2 and MMP-9 expression. More specifically, the experiment was performed by the method described in Example 2. Rabbit polyclonal anti-MMP-2 antibody, goat polyclonal anti-MMP-9 antibody and mouse anti-B-actin antibody (Santa Cruz Biotechnology, Inc.) were used for detection.
# [1] = test system: human pancreas cancer cell line MDAPanc-28; test: Matrigel infiltration assay; type: cell-based; conditions: MDAPanc-28 pretreated with 80 μg/ml FUT for 24 hours, 22-hour incubation in matrigel-coated chamber
# Experimental: A matrigel infiltration assay was performed to examine an inhibitory effect on infiltration in the human pancreas cancer cell line MDAPanc-28 by FUT treatment. Cells treated with 80 μg/ml of FUT for 24 hours and untreated cells were respectively inoculated to a matrigel-coated chamber at a concentration of 20000 cells per well for a 22-hour incubation at 37° C. either in the presence or absence of 80 μg/ml of FUT. The numbers of infiltrated cells were then counted under the microscope after Wright-Giemsa staining according to the method generally known.
# [2] = MDAPanc-28 cytoplasmic fraction, before and after FUT treatment
# [3] = immunoprecipitate from FUT-treated MDAPanc-28, substrate GST-IκBα
# [4] = MDAPanc-28, FUT 80 μg/ml pretreatment then TNF-α 5 ng/ml 24 hours, compared to FUT alone
# [5] = MDAPanc-28, FUT 80 μg/ml, 0 to 24 hours
# T1 sequence (O15111 whole entry): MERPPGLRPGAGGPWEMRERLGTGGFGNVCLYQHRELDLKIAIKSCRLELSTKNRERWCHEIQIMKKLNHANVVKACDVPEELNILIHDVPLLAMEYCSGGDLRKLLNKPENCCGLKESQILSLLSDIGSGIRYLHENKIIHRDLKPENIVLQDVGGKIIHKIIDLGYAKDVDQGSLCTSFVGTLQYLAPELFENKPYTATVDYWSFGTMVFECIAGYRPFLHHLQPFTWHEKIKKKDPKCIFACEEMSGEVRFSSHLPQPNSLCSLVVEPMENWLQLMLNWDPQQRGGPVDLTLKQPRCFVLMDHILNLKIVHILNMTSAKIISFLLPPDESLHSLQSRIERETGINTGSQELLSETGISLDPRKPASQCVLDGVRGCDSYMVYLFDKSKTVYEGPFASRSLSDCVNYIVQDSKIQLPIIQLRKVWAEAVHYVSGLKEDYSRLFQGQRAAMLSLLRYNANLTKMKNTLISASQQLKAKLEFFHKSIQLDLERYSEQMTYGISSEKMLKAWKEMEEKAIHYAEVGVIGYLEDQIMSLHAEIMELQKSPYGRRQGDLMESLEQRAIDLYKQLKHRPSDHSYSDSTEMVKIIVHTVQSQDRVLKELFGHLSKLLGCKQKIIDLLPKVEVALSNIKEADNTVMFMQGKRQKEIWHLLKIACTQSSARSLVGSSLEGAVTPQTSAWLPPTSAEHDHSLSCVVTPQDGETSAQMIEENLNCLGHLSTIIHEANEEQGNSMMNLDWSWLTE
# T1 sequence (O14920 whole entry partner): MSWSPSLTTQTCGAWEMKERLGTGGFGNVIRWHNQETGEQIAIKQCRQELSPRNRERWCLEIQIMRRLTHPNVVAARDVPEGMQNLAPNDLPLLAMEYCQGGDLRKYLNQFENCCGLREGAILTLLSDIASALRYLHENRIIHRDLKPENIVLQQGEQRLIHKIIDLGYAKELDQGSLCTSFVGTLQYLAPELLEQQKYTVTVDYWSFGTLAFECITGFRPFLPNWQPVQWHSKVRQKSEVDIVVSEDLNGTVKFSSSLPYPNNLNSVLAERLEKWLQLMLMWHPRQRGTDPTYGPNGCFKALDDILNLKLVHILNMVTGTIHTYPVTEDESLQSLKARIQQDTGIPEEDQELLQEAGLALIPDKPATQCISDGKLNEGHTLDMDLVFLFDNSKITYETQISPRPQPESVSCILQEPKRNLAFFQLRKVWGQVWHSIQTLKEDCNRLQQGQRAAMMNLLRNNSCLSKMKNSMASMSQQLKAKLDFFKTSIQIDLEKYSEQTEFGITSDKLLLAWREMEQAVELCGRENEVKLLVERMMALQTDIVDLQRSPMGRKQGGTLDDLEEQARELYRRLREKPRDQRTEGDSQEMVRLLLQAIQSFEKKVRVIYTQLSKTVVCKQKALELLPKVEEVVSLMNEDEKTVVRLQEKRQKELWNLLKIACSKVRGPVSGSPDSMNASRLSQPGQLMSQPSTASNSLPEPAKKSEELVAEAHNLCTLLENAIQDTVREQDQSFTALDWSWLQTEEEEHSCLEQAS
# T1 sequence (Q9Y6K9 whole entry partner): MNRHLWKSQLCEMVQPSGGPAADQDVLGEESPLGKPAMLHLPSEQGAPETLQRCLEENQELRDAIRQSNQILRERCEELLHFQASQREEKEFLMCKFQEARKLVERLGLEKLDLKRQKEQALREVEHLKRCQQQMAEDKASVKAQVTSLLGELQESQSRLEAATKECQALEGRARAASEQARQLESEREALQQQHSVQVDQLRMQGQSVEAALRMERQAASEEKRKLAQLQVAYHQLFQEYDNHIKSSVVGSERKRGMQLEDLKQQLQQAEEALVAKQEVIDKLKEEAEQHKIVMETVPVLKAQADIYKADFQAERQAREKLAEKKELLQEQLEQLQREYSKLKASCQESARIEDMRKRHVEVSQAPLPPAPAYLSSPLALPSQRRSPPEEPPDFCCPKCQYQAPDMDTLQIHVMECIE
# T2 sequence (O14920 whole entry): as the sequence (O14920 whole entry partner) above
# T2 sequence (O15111 whole entry partner): as the sequence (O15111 whole entry) above
# T2 sequence (Q9Y6K9 whole entry partner): as the sequence (Q9Y6K9 whole entry partner) above
smiles,measurement,setting,value
"N=C(N)c1ccc2cc(OC(=O)c3ccc(N=C(N)N)cc3)ccc2c1 [FUT, 6-amidino-2-naphthyl p-guanidinobenzoate dimethanesulfonate]",NF-κB activation over time,"NF-κB; MDAPanc-28, time after addition of FUT up to 48 hours",inhibited overtime up to 24 hours after addition of FUT and then was restored to a steady-state level at 48 hours
same,NF-κB activation,"NF-κB; MDAPanc-28, various concentrations of FUT",inhibited NF-κB activation in a concentration-dependent manner
same,expression level of IKK1,IKK1; [2],remain intact
same,enzyme activity of IKK1,IKK1; [3],reduces the enzyme activities of IKK1 and IKK2
same,expression level of IKK2,IKK2; [2],remain intact
same,enzyme activity of IKK2,IKK2; [3],reduces the enzyme activities of IKK1 and IKK2
same,PEA3 expression,PEA3,increased PEA3 expression overtime
same,caspase 8 activation with TNF-α stimulation,caspase 8; [4],enhanced FADD phosphorylation and caspase 8 activation
same,caspase 8 activation over time,caspase 8; [5],later on promoted caspase 8 activation
same,caspase 8 activation,"caspase 8; MDAPanc-28, various concentrations of FUT for 24 hours",activated by FUT in a concentration-dependent manner
same,caspase 8 activation in TNFRI-downregulated cells,"caspase 8; cells with TNFRI expression downregulated using siRNA, after FUT treatment",nor caspase 8 activation
same,FADD phosphorylation with TNF-α stimulation,FADD; [4],enhanced FADD phosphorylation
same,FADD phosphorylation,FADD; [5],promoted FADD phosphorylation overtime
same,MMP-2 expression,MMP-2,inhibited by FUT in a concentration-dependent manner
same,infiltration (number of infiltrated cells),[1],significant inhibitory effect on infiltration
